Where two headings read alike, the source gives them in different places.
Key:
human fibroblasts [1] = assay: Export of endogenously synthesized [3H]hyaluronan from human fibroblasts; format: cell-based; settings: for [3H]hyaluronan: 50 μg/ml in pinocytotic media, 40 hours
Experimental: (§1) This experiment was performed to investigate, whether an excess of hyaluronan oligosaccharides introduced into the cytosol interfere with the export of hyaluronan synthesized by the human fibroblasts. Fibroblasts (4×10^4 cells) were seeded into culture flasks of 25 cm^2 growth areas and incubated for 24 hours. High molecular weight hyaluronan, hyaluronan oligosaccharides, a mixture of N-acetyl-glucosamine and glucuronic acid or control buffer were introduced into the cytosol by the method of osmotic lysis of pinocytotic vesicles. The concentrations of the added components in the pinocytotic media were 50 μg/ml. The cells were incubated for 40 hours in the presence of [3H]GlcN (8 μCi/ml, specific activity 29 Ci/mmole) and the amount of radioactive hyaluronan released into the culture medium was determined as described.
as §1, with “Ci/ml,” for “μCi/ml,”, “μCi/mmole)” for “Ci/mmole)”
This experiment was performed to investigate, whether both processes could be uncoupled. Fibroblasts were labelled with [3H]GlcN and hyaluronan oligosaccharides, high molecular weight hyaluronan or an equal mixture of GlcNac and GlcA were introduced into the cytosol. [3H]hyaluronan secreted into the medium was isolated by ion exchange chromatography and the radioactivity was determined.

human skin fibroblasts = assay: Proliferation of human skin fibroblasts (cell counting); format: cell-based; settings: Homo sapiens, Skin fibroblast, read-out: Proliferation (IC50)
Experimental: Human fibroblasts were grown in […] in Dulbecco's modified Eagles medium supplemented with streptomycin/penicillin (100 units of each/ml), kanamycin (100 units/ml) and 10% foetal calf serum. Cell proliferation was determined by cell counting after trypsinisation three days after seeding.

human fibroblasts [2] = assay: Hyaluronan production of human fibroblasts (ELISA of culture medium); format: cell-based; settings: for IC50: Fibroblast, read-out: HA production (IC50)
hyaluronan synthase = settings: for IC50: read-out: HA synthase activity (IC50), membranes of human fibroblasts
MRP5 = MRP5 (Homo sapiens, UniProt O15440); settings: cited from earlier work
MRP transporters = MRP transporters (Homo sapiens, UniProt P33527); settings: read-out: IC50 for MRP transporter; cited from earlier work
MDR1 = MDR1 (Homo sapiens, UniProt P08183); settings: cited from earlier work
MRP1 = MRP1 (Homo sapiens, UniProt P33527); settings: read-out: IC50, transport of 17β-glucuronosyl-estradiol by MRP1; substrate 17β-glucuronosyl-estradiol; cited from earlier work
hyaluronan transport = assay: Inhibition of hyaluronan transport (export) from human fibroblasts, discussion of Example 9; settings: for inhibition of hyaluronan transport (words): human fibroblasts
Experimental: Cells from five culture flasks (180 cm2 growth area) were washed with cold phosphate buffered saline (PBS), harvested with the aid of a rubber policeman, sedimented at 1500 g for 5 min and suspended in 30 ml of ice-cold PBS. The cells were transferred into a Parr-cell disruption bomb, exposed to a nitrogen pressure of 900 psi for 15 min and disrupted by nitrogen cavitation [18] and the particulate fraction was obtained by centrifugation at 40000 g for 20 min. […] Hyaluronan synthesis was stopped by adding a solution of 10% sodium dodecylsuifate (SDS) to a final concentration of 1%. The mixtures were applied to descending paper chromatography that was developed with ethanol/aq. 1 M ammonium acetate pH 5.5 (13:7) as solvent. After 18 h the radioactivity of [14C]hyaluronan at the origin was determined.
Trypsinised fibroblasts were suspended in Dulbecco's medium at 10^5 cells/ml and 100 μl aliquots were transferred to a 96 well microtiter plate. The first row received 200 μl of the suspension and 20 μl of the multidrug resistance inhibitors dissolved in DMSO at concentrations of 4 mM. A serial dilution to the inhibitors was established by transfer of 100 μl aliquots from the first row to the following rows. All experiments were performed in duplicates. […] The cells were incubated for 2 days at 37° C. and aliquots (5 and 20 μl) of the culture medium were used for measurement of the hyaluronan concentration in the cell culture medium by an ELISA [19]. […] The mixtures were transferred to the hyaluronan-coated test plate and incubated for 1 hour at 37° C. The microtiter plate was washed three times with buffer A and incubated with 100 μl/well of a solution of streptavidin-horseraddish-peroxidase (Amersham) at a dilution of 1:100 in phosphate buffered saline, 0.1% Tween-20 for 30 min at room temperature. The plate was washed five times with buffer A and the colour was developed by incubation with a 100 μl/well of a solution of 5 mg o-phenylenediamine and 5 μl 30% H2O2 in 10 ml of 0.1 M citrate-phosphate buffer pH 5.3 for 25 min at room temperature. The adsorption was read at 490 nm. The concentrations in the samples were calculated from a logarithmic regression curve of the hyaluronan standard solutions.
Three parameters were measured: 1. The amount of hyaluronan produced during growth into the culture supernatant. 2. The hyaluronan synthase activity in particulate membrane fractions to eliminate the possibility that inhibition of hyaluronan production in cell culture could be caused indirectly by cellular mediators. 3. The effect on cell proliferation, because hyaluronan synthesis is also required for detachment during mitosis and growth of the human HT1080 cell line [14].

[3] = test system: bovine articular cartilage; assay: Proteoglycan loss from interleukin-induced osteoarthritic bovine cartilage organ culture; format: cell-based; settings: different concentrations
Excerpt: We analyzed the efficacy of several inhibitors in organ cultures of bovine articular cartilage that was induced to become osteoarthritic by interleukin.

MRP7 = target: T1, MRP7 (Homo sapiens, UniProt Q5T3U5); settings: cited from earlier work
T1 sequence (Q5T3U5 1-1492): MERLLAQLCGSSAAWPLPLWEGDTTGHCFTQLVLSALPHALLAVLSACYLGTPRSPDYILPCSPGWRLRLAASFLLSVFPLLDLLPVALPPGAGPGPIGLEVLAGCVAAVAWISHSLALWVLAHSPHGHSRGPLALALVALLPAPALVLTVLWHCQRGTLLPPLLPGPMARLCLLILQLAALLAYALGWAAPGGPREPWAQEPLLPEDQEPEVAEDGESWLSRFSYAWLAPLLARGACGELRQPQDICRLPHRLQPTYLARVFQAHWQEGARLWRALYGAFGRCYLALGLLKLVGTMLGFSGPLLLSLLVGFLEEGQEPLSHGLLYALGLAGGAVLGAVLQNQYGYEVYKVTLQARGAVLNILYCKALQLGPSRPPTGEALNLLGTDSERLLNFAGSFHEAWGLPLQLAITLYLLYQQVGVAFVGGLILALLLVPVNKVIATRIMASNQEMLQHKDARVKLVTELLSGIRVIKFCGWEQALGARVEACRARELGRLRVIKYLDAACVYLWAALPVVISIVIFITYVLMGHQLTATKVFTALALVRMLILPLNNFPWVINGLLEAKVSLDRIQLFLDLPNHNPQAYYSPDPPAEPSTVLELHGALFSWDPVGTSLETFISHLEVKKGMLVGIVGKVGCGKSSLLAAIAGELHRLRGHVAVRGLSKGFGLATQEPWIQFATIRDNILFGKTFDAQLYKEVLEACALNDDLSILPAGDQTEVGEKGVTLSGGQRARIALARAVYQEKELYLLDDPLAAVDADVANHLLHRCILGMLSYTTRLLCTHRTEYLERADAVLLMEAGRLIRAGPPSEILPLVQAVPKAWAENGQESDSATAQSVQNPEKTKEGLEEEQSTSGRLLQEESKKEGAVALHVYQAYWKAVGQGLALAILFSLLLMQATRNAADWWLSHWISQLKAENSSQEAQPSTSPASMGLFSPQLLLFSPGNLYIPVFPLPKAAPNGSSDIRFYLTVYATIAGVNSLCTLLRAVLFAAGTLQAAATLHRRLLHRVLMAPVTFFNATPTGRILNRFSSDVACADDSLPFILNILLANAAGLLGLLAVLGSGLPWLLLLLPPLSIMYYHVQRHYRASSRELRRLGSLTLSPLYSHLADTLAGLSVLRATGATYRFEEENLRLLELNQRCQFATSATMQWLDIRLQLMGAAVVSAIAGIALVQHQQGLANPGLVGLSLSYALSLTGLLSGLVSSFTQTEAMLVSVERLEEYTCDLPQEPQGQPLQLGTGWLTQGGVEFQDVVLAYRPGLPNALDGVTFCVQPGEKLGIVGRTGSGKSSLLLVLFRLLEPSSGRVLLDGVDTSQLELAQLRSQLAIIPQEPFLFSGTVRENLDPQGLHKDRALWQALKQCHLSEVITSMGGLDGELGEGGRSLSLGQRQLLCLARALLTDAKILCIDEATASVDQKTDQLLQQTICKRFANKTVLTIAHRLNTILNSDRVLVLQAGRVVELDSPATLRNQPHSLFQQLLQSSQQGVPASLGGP

MRP4 = target: T2, MRP4 (Homo sapiens, UniProt O15439); settings: read-out: IC50, MRP4 mediated export of methotrexate; substrate methotrexate; cited from earlier work
T2 sequence (O15439 1-1325): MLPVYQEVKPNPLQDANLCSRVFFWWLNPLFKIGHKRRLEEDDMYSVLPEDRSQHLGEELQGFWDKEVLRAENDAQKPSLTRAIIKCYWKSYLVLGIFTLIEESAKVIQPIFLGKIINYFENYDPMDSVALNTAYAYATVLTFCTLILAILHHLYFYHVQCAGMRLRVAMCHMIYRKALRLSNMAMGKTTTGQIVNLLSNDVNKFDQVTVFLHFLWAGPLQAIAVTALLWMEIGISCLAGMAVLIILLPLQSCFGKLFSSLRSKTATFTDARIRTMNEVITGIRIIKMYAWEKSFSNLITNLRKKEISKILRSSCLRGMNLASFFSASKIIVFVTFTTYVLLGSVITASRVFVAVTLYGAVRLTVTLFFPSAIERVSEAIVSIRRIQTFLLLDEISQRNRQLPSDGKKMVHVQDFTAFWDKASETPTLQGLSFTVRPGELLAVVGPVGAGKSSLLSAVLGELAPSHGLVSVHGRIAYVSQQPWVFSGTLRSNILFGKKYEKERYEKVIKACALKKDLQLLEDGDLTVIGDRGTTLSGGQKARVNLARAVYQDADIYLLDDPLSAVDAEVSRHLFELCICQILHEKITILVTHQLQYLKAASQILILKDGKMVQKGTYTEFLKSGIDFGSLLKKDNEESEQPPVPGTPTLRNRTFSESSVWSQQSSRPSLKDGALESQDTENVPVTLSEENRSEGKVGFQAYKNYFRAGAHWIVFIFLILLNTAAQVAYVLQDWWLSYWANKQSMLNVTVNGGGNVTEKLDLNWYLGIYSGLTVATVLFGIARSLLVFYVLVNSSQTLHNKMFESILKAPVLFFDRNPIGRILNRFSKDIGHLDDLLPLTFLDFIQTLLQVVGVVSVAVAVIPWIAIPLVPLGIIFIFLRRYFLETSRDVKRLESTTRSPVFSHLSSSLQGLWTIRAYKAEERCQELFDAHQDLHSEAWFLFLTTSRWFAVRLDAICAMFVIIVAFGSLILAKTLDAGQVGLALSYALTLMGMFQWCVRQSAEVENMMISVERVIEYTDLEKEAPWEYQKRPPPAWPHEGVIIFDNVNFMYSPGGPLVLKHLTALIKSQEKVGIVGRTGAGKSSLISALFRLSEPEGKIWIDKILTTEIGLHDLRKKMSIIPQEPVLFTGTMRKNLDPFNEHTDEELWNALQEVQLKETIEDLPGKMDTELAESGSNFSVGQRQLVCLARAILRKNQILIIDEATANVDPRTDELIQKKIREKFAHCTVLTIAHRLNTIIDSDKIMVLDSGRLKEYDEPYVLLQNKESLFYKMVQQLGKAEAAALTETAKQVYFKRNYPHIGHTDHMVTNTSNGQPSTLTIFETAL

MRP2 = MRP2 (Homo sapiens, UniProt Q92887); settings: cited from earlier work
[4] = human fibroblasts, culture medium

Sequence of MRP5 (O15440 whole entry): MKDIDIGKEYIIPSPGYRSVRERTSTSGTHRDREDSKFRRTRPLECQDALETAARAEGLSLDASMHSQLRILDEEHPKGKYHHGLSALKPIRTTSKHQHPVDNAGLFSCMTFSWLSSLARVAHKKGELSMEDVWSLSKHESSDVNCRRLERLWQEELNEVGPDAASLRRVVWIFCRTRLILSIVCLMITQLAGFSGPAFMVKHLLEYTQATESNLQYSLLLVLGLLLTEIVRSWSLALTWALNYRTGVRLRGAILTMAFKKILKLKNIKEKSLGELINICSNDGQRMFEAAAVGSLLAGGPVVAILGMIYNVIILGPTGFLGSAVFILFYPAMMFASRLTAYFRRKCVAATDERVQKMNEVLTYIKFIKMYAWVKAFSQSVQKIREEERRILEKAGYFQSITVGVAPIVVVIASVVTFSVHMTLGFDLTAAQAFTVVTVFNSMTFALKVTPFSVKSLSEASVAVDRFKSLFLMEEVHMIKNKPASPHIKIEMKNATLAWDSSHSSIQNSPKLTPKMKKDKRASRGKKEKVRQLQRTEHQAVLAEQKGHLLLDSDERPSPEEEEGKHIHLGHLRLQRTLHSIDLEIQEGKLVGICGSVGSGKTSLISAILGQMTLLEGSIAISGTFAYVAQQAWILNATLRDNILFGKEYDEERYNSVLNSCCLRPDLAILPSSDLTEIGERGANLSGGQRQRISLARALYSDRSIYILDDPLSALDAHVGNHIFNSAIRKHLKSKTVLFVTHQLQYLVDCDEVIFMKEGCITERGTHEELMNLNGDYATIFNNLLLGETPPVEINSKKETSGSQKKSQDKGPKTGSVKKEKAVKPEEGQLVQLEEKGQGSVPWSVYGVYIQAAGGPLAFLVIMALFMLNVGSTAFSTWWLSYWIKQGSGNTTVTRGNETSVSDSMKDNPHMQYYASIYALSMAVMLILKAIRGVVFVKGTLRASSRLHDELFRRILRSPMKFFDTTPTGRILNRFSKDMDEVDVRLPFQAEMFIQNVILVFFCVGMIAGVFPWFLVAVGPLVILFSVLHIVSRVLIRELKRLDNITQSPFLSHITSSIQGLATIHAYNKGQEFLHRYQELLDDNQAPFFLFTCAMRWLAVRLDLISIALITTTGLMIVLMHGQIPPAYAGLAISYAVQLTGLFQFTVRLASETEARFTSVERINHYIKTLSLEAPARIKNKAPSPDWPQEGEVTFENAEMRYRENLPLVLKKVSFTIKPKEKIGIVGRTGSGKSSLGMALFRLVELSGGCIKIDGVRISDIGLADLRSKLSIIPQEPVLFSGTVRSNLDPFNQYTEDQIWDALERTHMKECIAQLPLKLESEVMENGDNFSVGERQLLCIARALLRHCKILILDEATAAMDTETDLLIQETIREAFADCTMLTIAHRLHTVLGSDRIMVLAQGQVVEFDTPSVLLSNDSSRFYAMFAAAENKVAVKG
Sequence of MDR1 (P08183 whole entry): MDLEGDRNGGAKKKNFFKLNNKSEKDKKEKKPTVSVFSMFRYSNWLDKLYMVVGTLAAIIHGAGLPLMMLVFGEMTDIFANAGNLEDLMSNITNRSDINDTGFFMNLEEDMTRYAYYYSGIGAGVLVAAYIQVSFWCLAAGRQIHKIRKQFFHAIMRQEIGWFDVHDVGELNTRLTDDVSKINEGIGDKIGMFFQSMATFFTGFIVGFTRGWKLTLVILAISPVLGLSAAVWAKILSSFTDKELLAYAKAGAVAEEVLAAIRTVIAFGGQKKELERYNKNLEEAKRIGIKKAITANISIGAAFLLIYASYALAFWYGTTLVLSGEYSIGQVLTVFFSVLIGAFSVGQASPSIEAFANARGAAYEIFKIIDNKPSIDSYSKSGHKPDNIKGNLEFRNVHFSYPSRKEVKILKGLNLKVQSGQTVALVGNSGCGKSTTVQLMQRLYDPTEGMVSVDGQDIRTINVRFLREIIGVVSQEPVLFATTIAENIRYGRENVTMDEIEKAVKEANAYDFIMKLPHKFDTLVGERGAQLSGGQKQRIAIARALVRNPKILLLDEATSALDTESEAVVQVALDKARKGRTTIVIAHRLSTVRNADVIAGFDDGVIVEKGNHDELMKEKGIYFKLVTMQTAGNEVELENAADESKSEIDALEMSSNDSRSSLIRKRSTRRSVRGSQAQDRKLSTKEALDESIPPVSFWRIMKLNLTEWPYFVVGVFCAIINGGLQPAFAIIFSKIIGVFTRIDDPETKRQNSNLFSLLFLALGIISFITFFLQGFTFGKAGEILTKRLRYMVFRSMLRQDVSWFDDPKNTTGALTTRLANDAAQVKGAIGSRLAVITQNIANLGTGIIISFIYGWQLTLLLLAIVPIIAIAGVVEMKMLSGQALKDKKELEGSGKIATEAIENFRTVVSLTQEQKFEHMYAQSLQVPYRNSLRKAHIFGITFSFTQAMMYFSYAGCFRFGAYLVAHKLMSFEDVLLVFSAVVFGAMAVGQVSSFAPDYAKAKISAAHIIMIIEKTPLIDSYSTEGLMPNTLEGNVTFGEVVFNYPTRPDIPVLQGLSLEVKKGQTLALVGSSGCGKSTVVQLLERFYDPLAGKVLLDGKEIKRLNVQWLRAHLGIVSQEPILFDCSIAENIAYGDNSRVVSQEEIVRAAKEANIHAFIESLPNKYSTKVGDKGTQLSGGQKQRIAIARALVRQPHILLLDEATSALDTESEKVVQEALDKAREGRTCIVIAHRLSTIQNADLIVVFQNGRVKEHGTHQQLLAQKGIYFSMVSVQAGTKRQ
Sequence of MRP transporters (P33527 whole entry): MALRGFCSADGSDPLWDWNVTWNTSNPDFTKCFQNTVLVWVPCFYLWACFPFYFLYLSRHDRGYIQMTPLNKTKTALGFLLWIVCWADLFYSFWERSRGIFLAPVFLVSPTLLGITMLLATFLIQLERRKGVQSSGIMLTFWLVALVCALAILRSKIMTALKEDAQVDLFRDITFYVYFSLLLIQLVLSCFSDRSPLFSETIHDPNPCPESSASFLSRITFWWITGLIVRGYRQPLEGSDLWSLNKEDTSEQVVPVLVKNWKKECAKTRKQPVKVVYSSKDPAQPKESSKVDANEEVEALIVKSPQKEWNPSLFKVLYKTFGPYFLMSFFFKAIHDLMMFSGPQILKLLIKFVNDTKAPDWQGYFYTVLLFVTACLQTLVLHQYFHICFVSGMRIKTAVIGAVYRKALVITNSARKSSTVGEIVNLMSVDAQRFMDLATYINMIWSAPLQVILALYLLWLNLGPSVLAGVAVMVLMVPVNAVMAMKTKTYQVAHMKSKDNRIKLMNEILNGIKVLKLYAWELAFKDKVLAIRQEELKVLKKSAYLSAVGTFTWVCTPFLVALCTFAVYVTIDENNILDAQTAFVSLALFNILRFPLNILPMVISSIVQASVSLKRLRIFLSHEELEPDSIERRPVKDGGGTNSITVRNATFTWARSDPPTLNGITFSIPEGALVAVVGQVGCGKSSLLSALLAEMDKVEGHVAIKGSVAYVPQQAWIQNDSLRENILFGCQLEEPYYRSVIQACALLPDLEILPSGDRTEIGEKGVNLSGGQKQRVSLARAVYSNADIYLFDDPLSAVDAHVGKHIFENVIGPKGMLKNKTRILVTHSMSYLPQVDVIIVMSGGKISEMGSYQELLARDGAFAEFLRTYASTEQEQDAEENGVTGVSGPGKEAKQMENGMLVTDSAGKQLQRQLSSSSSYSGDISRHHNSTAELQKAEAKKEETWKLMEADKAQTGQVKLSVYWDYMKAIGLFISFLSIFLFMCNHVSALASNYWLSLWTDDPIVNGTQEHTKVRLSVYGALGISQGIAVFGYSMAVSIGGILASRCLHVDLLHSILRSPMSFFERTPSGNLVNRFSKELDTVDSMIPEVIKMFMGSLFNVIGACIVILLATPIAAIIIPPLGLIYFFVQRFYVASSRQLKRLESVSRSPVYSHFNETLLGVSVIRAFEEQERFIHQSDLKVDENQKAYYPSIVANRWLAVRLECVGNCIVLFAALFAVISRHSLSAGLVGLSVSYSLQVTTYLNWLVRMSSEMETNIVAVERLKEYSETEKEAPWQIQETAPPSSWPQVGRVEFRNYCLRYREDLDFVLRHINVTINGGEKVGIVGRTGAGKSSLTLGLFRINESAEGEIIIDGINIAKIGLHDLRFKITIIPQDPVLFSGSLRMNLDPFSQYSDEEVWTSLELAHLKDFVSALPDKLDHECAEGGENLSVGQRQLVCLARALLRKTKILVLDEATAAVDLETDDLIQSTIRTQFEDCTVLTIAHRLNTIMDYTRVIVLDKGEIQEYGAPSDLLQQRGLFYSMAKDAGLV
Sequence of MRP1 (P33527 whole entry): as above

With Hyaluronan the [3H]hyaluronan (human fibroblasts [1]; Example 10 Table 2, buffer) was 10700 cpm, the “[3H]hyaluronan” value (human fibroblasts [1]; Example 11 Table 1, buffer 9436) was 10723 cpm and the “export of endogenous labelled hyaluronan” value (human fibroblasts [1]; introduced into the cytosol) was “not”.

Work on `COc1ccc2c(c1)c(CC(=O)O)c(C)n2C(=O)c1ccc(Cl)cc1` [Indomethacin] yielded an IC50 (human skin fibroblasts) of 200 µM, an IC50 (human fibroblasts [2]; [4]) of 50 µM and an IC50 (hyaluronan synthase) of 10 µM. The IC50 (MRP5; read-out: published inhibitory concentrations IC50 or Ki, MRP5) was over 100 µM, the IC50 (MRP5; substrate S-(2,4-dinitrophenyl)glutathione, read-out: IC50, MRP5 mediated transport of S-(2,4-dinitrophenyl)glutathione) was over 100 µM and the IC50 (MRP transporters) was 10 to 20 µM. For the same molecule, the IC50 (MDR1; read-out: IC50 for MDR1) was over 800 µM, the IC50 (MDR1; read-out: published inhibitory concentrations IC50 or Ki, MDR1) was over 800 µM and the IC50 (MRP1) was about 50 µM. The “inhibition of hyaluronan transport (words)” value (“inhibition … (words)” for short) (hyaluronan transport) was “very good inhibition” and the “inhibition … (words)” value (hyaluronan transport; listed as indomethacin) was “inhibited hyaluronan transport”.

For `CC(C)COCC(CN(Cc1ccccc1)c1ccccc1)N1CCCC1` (stereo not shown) [bepidril], the “protection from proteoglycan loss, safranin O histology” value [3] was “only inhibitory at high concentrations”.

`C/C=C/C[C@@H](C)C(=O)[C@H]1C(=O)N[C@@H](C(C)C)C(=O)N(C)CC(=O)N(C)[C@@H](CC(C)C)C(=O)N[C@@H](C(C)C)C(=O)N(C)[C@@H](CC(C)C)C(=O)N[C@@H](C)C(=O)N[C@H](C)C(=O)N(C)[C@@H](CC(C)C)C(=O)N(C)[C@@H](CC(C)C)C(=O)N(C)[C@@H](C(C)C)C(=O)N1C` [Valspodar, cyclosporin D, 6-[(2S, 4R, 6E)-4-methyl-2 (methylamino)-3-oxo-6-octenoic acid]-(9CI)] gave an IC50 (human skin fibroblasts) of 45 µM, an IC50 (human fibroblasts [2]; Homo sapiens) of 15 µM and an IC50 (hyaluronan transport; Homo sapiens, Fibroblast, read-out: IC50 for hyaluronan transport (export)) of about 15 µM.

In the case of `N=C(N)NC(=O)c1nc(Cl)c(N)nc1N` [amyloride], the “protection from proteoglycan loss, safranin O histology” value [3] is reported as “only inhibitory at high concentrations”.

In the case of `OCCN(CCO)c1nc(N2CCCCC2)c2nc(N(CCO)CCO)nc(N3CCCCC3)c2n1` [Dipyramidole], the IC50 (human fibroblasts [2]; Homo sapiens) is reported as 15 µM, the IC50 (hyaluronan synthase) is reported as about 1 µM and the “inhibition … (words)” value (hyaluronan transport) is reported as “effective inhibitor”.

For `COc1cc2c(cc1OC)-c1c/c(=N\c3c(C)cc(C)cc3C)n(C)c(=O)n1CC2` [Trequinsin], the IC50 (human skin fibroblasts) was 100 µM, the IC50 (human fibroblasts [2]; [4]) was 6 µM and the IC50 (hyaluronan synthase) was 60 µM. For the same molecule, the Ki (MRP5; substrate cAMP, read-out: Ki, MRP5 mediated transport of cAMP) was 0.38 µM, the Ki (MRP5; substrate cGMP, read-out: Ki, MRP5 mediated transport of cGMP) was 0.24 µM and the “inhibition of export of 17β-glucuronosyl-estradiol by MRP7” value (MRP7; at 100 μM) was 44%. For the same molecule, the IC50 (MRP4) was about 10 µM and the “inhibition … (words)” value (hyaluronan transport) was “good inhibitor”.

In the case of `CN(C)C(=O)CCSC(SCCC(=O)O)c1cccc(/C=C/c2ccc3ccc(Cl)cc3n2)c1` (stereo not shown) [MK-571], the IC50 (human skin fibroblasts) is reported as 150 µM, the IC50 (human fibroblasts [2]; [4]) is reported as over 400 µM and the “concentrations at which hyaluronan secretion/production is inhibited” value (human fibroblasts [2]; human fibroblasts, inhibition only partial) is reported as “above 100 μM”. The “hyaluronan transport / synthase activity in membranes” value (hyaluronan synthase; membranes from human fibroblasts) was “less efficient”, the IC50 (hyaluronan synthase) was over 100 µM and the IC50 (MRP2) was 469 µM. The “effect on MRP5 mediated transport of cGMP” value (MRP5; at concentrations up to 50 μM) was “no inhibitory effect”, the “published inhibitory concentrations IC50 or Ki, MRP5” value (MRP5) was “no” and the “inhibition of 17β-glucuronosyl-estradiol export by MRP7” value (MRP7; at 30 μM) was 42%. For the same molecule, the “inhibition … (words)” value (hyaluronan transport) was “did not inhibit”.

From US20080152640A1, “Means and Methods For Treating a Disease Which is Associated With an Excess Transport of Hyaluronan Across a Lipid Bilayer” (priority 2003, published 2008)
